Experimental data reported in ChEMBL document CHEMBL5316285 (J Med Chem, 2023).
Active and inactive are the calls of the source. The rule behind the calls is not given here.

Tests used:
A2780 [1] = experiment: Antiproliferative activity against human A2780 cells incubated for 72 hrs in carbon-dioxide atmosphere measured by cell counting kit-8 method; format: functional, cell-based; conditions: A2780, 72 h
[2] = target: T1, von Hippel-Lindau disease tumor suppressor/Nicotinamide phosphoribosyltransferase (Homo sapiens, UniProt P43490+P40337); experiment: Protac activity at VHL/NAMPT in human A2780 cells assessed as induction of NAMPT degradation measured at 0.005 to 10 microM after 24 hrs by Western blotting analysis; format: cell-based; conditions: dose 0.005-10 µM
Target sequence in this assay (P40337 whole entry, looked up): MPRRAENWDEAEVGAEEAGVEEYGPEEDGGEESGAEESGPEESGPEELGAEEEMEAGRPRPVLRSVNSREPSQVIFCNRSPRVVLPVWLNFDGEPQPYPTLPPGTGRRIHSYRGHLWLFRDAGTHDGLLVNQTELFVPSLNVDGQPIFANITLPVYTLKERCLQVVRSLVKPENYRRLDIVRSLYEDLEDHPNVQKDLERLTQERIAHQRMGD
Target sequence in this assay (P43490 whole entry, looked up): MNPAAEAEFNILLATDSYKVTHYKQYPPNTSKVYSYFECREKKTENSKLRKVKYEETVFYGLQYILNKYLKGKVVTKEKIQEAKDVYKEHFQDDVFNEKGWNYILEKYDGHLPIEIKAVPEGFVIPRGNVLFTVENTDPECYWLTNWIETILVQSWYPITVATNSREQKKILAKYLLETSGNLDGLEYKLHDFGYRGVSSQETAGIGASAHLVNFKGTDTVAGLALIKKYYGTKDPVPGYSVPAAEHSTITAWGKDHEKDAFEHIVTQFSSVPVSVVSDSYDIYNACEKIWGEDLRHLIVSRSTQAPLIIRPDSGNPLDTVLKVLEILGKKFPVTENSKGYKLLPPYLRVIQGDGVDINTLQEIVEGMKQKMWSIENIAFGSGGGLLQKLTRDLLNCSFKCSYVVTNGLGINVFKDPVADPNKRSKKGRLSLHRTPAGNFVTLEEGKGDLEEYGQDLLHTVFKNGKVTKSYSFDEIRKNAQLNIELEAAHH

[3] = target: Nicotinamide phosphoribosyltransferase (Homo sapiens, UniProt P43490); experiment: Inhibition of NAMPT (unknown origin) using NAM as substrate preincubated for 5 mins followed by substrate addition measured after 15 mins in presence of ATP by fluorescence based microplate reader analysis
Chain of Nicotinamide phosphoribosyltransferase (P43490 whole entry): as the sequence (P43490 whole entry, looked up) above

[4] = target: T1, von Hippel-Lindau disease tumor suppressor/Nicotinamide phosphoribosyltransferase; experiment: Protac activity at VHL/NAMPT in human A2780 cells assessed as degradation of NAMPT using NAM as substrate preincubated for 5 mins followed by substrate addition measured after 5 mins in presence of ATP by luminesence based microplate reader analysis; format: cell-based
Target sequence in this assay (P43490 whole entry): as the sequence (P43490 whole entry, looked up) above
Target sequence in this assay (P40337 whole entry): as the sequence (P40337 whole entry, looked up) above

[5] = target: T1, von Hippel-Lindau disease tumor suppressor/Nicotinamide phosphoribosyltransferase; experiment: Protac activity at VHL/NAMPT in human A2780 cells assessed as reduction of NAMPT protein level at 10 nM measured after 24 hrs by Western blotting analysis; format: cell-based
Target sequence in this assay (P40337 whole entry, looked up): as above
Target sequence in this assay (P43490 whole entry, looked up): as the sequence (P43490 whole entry, looked up) above

[6] = target: T1, von Hippel-Lindau disease tumor suppressor/Nicotinamide phosphoribosyltransferase; experiment: Protac activity at VHL/NAMPT in human A2780 cells assessed as induction of NAMPT degradation measured at 500 to 5000 nM after 24 hrs by Western blotting analysis; format: cell-based; conditions: dose 500-5000 nM
Target sequence in this assay (P40337 whole entry, looked up): as the sequence (P40337 whole entry, looked up) above
Target sequence in this assay (P43490 whole entry, looked up): as the sequence (P43490 whole entry, looked up) above

[7] = target: T1, von Hippel-Lindau disease tumor suppressor/Nicotinamide phosphoribosyltransferase; experiment: Protac activity at VHL/NAMPT in human A2780 cells assessed as induction of NAMPT degradation measured at 5 to 50 nM after 24 hrs by Western blotting analysis; format: cell-based; conditions: dose 5-50 nM
Target sequence in this assay (P40337 whole entry, looked up): as the sequence (P40337 whole entry, looked up) above
Target sequence in this assay (P43490 whole entry, looked up): as the sequence (P43490 whole entry, looked up) above

[8] = target: T1, von Hippel-Lindau disease tumor suppressor/Nicotinamide phosphoribosyltransferase; experiment: Protac activity at VHL/NAMPT in human A2780 cells assessed as reduction of NAMPT protein level at 0.1 to 100 nM measured after 24 hrs by Western blotting analysis; format: cell-based; conditions: dose 0.1-100 nM
Target sequence in this assay (P40337 whole entry, looked up): as the sequence (P40337 whole entry, looked up) above
Target sequence in this assay (P43490 whole entry, looked up): as the sequence (P43490 whole entry, looked up) above

CT26 = experiment: Antiproliferative activity against mouse CT26 cells; format: functional, cell-based
A2780 [9] = experiment: Antitumor activity against human A2780 cells xenografted in nude mouse assessed as tumor growth inhibition at 2 uM/Kg, IV once every 3 days upto 21 days relative to control; format: functional; conditions: time 21 day, at 2 µmol/kg
[10] = Retinal toxicity in nude mouse xenografted with human A2780 cells at 2 uM/Kg, IV once every 3 days upto 21 days by microscopic analysis; conditions: 504 h, time 21 day
[11] = Toxicity in nude mouse xenografted with human A2780 cells assessed as pathological damage in kidney at 2 uM/Kg, IV once every 3 days upto 21 days by hematoxylin and eosin staining analysis; format: tissue-based; conditions: 504 h, time 21 day
[12] = Toxicity in nude mouse xenografted with human A2780 cells assessed as loss in body weight at 2 uM/Kg, IV once every 3 days upto 21 days; conditions: 504 h, time 21 day
[13] = Toxicity in nude mouse xenografted with human A2780 cells assessed as pathological damage in lung at 2 uM/Kg, IV once every 3 days upto 21 days by hematoxylin and eosin staining analysis; format: tissue-based; conditions: 504 h, time 21 day
[14] = target: T1, von Hippel-Lindau disease tumor suppressor/Nicotinamide phosphoribosyltransferase; experiment: Protac activity at VHL/NAMPT in human A2780 cells assessed as induction of NAMPT degradation measured at 0.2 to 500 nM after 24 hrs by Western blotting analysis; format: cell-based; conditions: dose 0.2-500 nM
Target sequence in this assay (P40337 whole entry, looked up): as the sequence (P40337 whole entry, looked up) above
Target sequence in this assay (P43490 whole entry, looked up): as the sequence (P43490 whole entry, looked up) above

SMILES	IC50 (A2780 [1]) [µM]	IC50 [3] [µM]	DC50 [4] [µM]	other results
Cc1ncsc1-c1ccc([C@H](C)NC(=O)[C@@H]2C[C@@H](O)CN2C(=O)[C@@H](NC(=O)CCCCCCCCCN2CCN(S(=O)(=O)c3ccc(NC(=O)NCc4cccnc4)cc3)CC2)C(C)(C)C)cc1	0.01	0.19	0.0015	Activity [2]: Dose-Dependent Effect; Activity [5]: Active
Cc1ncsc1-c1ccc([C@H](C)NC(=O)[C@@H]2C[C@@H](O)CN2C(=O)[C@@H](NC(=O)COCCOCCOCCOCCn2cc(CCN3CCN(S(=O)(=O)c4ccc(NC(=O)NCc5cccnc5)cc4)CC3)nn2)C(C)(C)C)cc1	0.401	0.083	0.05	Activity [6]: Active; Activity [7]: inactive
Cc1ncsc1-c1ccc([C@H](C)NC(=O)[C@@H]2C[C@@H](O)CN2C(=O)[C@@H](NC(=O)COCCOCCOCCOCCOCCn2cc(CCN3CCN(S(=O)(=O)c4ccc(NC(=O)NCc5cccnc5)cc4)CC3)nn2)C(C)(C)C)cc1	0.477	0.97	0.05	Activity [6]: Active; Activity [7]: inactive
Cc1ncsc1-c1ccc([C@H](C)NC(=O)[C@@H]2C[C@@H](O)CN2C(=O)[C@@H](NC(=O)CCCCCCCCCCCN2CCN(S(=O)(=O)c3ccc(NC(=O)NCc4cccnc4)cc3)CC2)C(C)(C)C)cc1	0.03	0.31	0.0024	Activity [2]: Dose-Dependent Effect; Activity [5]: Active
O=S(=O)(c1ccc(NC(=S)NCc2cccnc2)cc1)N1CCCCC1	0.13	–	–	IC50 (CT26): 4.6 µM; TGI (A2780 [9]): 49.8%; Activity [10]: Non-Toxic
Cc1ncsc1-c1ccc([C@H](C)NC(=O)[C@@H]2C[C@@H](O)CN2C(=O)[C@@H](NC(=O)COCCOCCOCCOCCOCCN2CCN(S(=O)(=O)c3ccc(NC(=O)NCc4cccnc4)cc3)CC2)C(C)(C)C)cc1	0.133	0.19	0.022	Activity [14]: Dose-Dependent Effect
Cc1ncsc1-c1ccc([C@H](C)NC(=O)[C@@H]2C[C@@H](O)CN2C(=O)[C@@H](NC(=O)CCCCCCN2CCN(S(=O)(=O)c3ccc(NC(=O)NCc4cccnc4)cc3)CC2)C(C)(C)C)cc1	0.096	0.12	> 10	–
Cc1ncsc1-c1ccc([C@H](C)NC(=O)[C@@H]2C[C@@H](O)CN2C(=O)[C@@H](NC(=O)COCCOCCOCCOCCN2CCN(S(=O)(=O)c3ccc(NC(=O)NCc4cccnc4)cc3)CC2)C(C)(C)C)cc1	0.173	0.13	0.019	Activity [14]: Dose-Dependent Effect
Cc1ncsc1-c1ccc([C@H](C)NC(=O)[C@@H]2C[C@@H](O)CN2C(=O)[C@@H](NC(=O)COCCOCCOCCN2CCN(S(=O)(=O)c3ccc(NC(=O)NCc4cccnc4)cc3)CC2)C(C)(C)C)cc1	0.056	0.13	0.093	Activity [14]: Dose-Dependent Effect
Cc1ncsc1-c1ccc([C@H](C)NC(=O)[C@@H]2C[C@@H](O)CN2C(=O)[C@@H](NC(=O)COCCOCCOCCn2cc(CCN3CCN(S(=O)(=O)c4ccc(NC(=O)NCc5cccnc5)cc4)CC3)nn2)C(C)(C)C)cc1	0.487	0.094	0.05	Activity [6]: Active; Activity [7]: inactive
Cc1ncsc1-c1ccc([C@H](C)NC(=O)[C@@H]2C[C@@H](O)CN2C(=O)[C@@H](NC(=O)COCCn2cc(CCN3CCN(S(=O)(=O)c4ccc(NC(=O)NCc5cccnc5)cc4)CC3)nn2)C(C)(C)C)cc1	0.433	0.12	0.05	Activity [6]: Active; Activity [7]: inactive
Cc1ncsc1-c1ccc([C@H](C)NC(=O)[C@@H]2C[C@@H](O)CN2C(=O)[C@@H](NC(=O)COCCN2CCN(S(=O)(=O)c3ccc(NC(=O)NCc4cccnc4)cc3)CC2)C(C)(C)C)cc1	5.51	0.16	> 0.1	Activity [8]: inactive
Cc1ncsc1-c1ccc([C@H](C)NC(=O)[C@H]2C[C@H](O)CN2C(=O)[C@@H](NC(=O)CCCCCCCCN2CCN(S(=O)(=O)c3ccc(NC(=O)NCc4cccnc4)cc3)CC2)C(C)(C)C)cc1	0.707	0.11	> 10	–

More lines, main results first:

IC50 (A2780 [1]) [µM]	IC50 [3] [µM]	DC50 [4] [µM]	SMILES	other results
0.737	0.19	0.05	Cc1ncsc1-c1ccc([C@H](C)NC(=O)[C@@H]2C[C@@H](O)CN2C(=O)[C@@H](NC(=O)COCCOCCn2cc(CCN3CCN(S(=O)(=O)c4ccc(NC(=O)NCc5cccnc5)cc4)CC3)nn2)C(C)(C)C)cc1	Activity [6]: Active; Activity [7]: inactive
1.23	0.15	> 0.1	Cc1ncsc1-c1ccc([C@H](C)NC(=O)[C@@H]2C[C@@H](O)CN2C(=O)[C@@H](NC(=O)COCCOCCN2CCN(S(=O)(=O)c3ccc(NC(=O)NCc4cccnc4)cc3)CC2)C(C)(C)C)cc1	Activity [8]: inactive
0.00028	–	–	O=C(/C=C/c1cccnc1)NCCCCC1CCN(C(=O)c2ccccc2)CC1 [DAPORINAD]	TGI (A2780 [9]): 62.9%; Activity [11]: Toxic; Activity [10]: Non-Toxic; Activity [12]: Toxic; Activity [13]: Toxic
0.0059	0.1	> 0.1	Cc1ncsc1-c1ccc([C@H](C)NC(=O)[C@@H]2C[C@@H](O)CN2C(=O)[C@@H](NC(=O)CCCCCCCN2CCN(S(=O)(=O)c3ccc(NC(=O)NCc4cccnc4)cc3)CC2)C(C)(C)C)cc1	–
0.03	0.23	< 0.0046	Cc1ncsc1-c1ccc([C@H](C)NC(=O)[C@@H]2C[C@@H](O)CN2C(=O)[C@@H](NC(=O)CCCCCCCCCCN2CCN(S(=O)(=O)c3ccc(NC(=O)NCc4cccnc4)cc3)CC2)C(C)(C)C)cc1	Activity [2]: Dose-Dependent Effect; Activity [5]: Active
> 100	> 2	–	CC(=O)N[C@H](C(=O)N1C[C@H](O)C[C@H]1C(=O)N[C@@H](C)c1ccc(-c2scnc2C)cc1)C(C)(C)C	–
